From patent US9957271B2, “Substituted bicyclic aza-heterocycles and analogues as sirtuin modulators” (GlaxoSmithKline, LLC, priority 2012, dated 2018) come the findings set out here.

The target in this experiment is T1, SIRT1 (Homo sapiens, UniProt Q96EB6).
T1 sequence (Q96EB6 1-747): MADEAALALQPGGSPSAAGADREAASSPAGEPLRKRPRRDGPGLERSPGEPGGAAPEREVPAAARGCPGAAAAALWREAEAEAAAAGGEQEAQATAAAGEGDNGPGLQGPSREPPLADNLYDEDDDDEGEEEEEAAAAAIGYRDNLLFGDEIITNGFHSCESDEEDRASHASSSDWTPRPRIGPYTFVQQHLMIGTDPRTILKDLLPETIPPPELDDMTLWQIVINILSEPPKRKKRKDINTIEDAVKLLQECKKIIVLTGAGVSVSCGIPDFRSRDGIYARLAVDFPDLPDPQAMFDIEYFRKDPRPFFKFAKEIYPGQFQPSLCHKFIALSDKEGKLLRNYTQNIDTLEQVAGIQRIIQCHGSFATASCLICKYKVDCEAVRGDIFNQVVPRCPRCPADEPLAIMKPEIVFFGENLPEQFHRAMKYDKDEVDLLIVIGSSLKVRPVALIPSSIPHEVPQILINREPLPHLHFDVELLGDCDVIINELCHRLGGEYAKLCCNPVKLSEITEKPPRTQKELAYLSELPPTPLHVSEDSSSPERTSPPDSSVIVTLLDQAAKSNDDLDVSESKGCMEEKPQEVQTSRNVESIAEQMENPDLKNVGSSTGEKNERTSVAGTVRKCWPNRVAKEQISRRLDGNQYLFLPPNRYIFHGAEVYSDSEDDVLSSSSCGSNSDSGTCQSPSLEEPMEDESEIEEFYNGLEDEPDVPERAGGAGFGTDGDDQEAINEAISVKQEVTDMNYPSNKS
As to the kind of experiment: TAMRA based mass spectrometry assay of SIRT1 activity. It is filed as biochemical. The settings on record: TAMRA peptide substrate; for TAMRA EC1.5 (μM): concentration of test compound giving 150% activation of SIRT1; for Emax: percent maximum fold activation of SIRT1, read-out: TAMRA % Fold Act. An excerpt:
Mass spectrometry based assays were used to identify modulators of SIRT1 activity. The TAMRA based assay utilized a peptide having 20 amino acid residues as follows: Ac-EE-K(biotin)-[…](Ac)NleSTEG-K(5TMR)-EE-NH2 (SEQ ID NO: 1), wherein K(Ac) is an acetylated lysine residue and Nle is a norleucine. The peptide was labeled with the fluorophore 5TMR (excitation 540 nm/emission 580 nm) at the C-terminus. The sequence of the peptide substrate was based on p53 with several modifications. In addition, the methionine residue naturally present in the sequence was replaced with the norleucine because the methionine may be susceptible to oxidation during synthesis and purification. The Trp based assay utilized a peptide having an amino acid residues as follows: Ac-R-H-K-K(Ac)-W-NH2 (SEQ ID NO: 2).
The TAMRA based mass spectrometry assay was conducted as follows: 0.5 μM peptide substrate and 120 μM βNAD^+ was incubated with 10 nM SIRT1 for 25 minutes at 25° C. in a reaction buffer (50 mM Tris-acetate pH 8, 137 mM NaCl, 2.7 mM KCl, 1 mM MgCl2, 5 mM DTT, 0.05% BSA). The SIRT1 protein was obtained by cloning the SirT1 gene into a T7-promoter containing vector, which was then transformed and expressed in BL21(DE3) bacterial cells. Test compound was added at varying concentrations to this reaction mixture and the resulting reactions were monitored. After the 25 minute incubation with SIRT1, 10 μL of 10% formic acid was added to stop the reaction. The resulting reactions were sealed and frozen for later mass spec analysis. Determination of the amount of deacetylated substrate peptide formed (or, alternatively, the amount of O-acetyl-ADP-ribose (OAADPR) generated) by the sirtuin-mediated NAD-dependent deacetylation reaction allowed for the precise measurement of relative SIRT1 activity in the presence of varying concentrations of the test compound versus control reactions lacking the test compound.
A control for inhibition of sirtuin activity was conducted by adding 1 μL of 500 mM nicotinamide as a negative control at the start of the reaction (e.g., permits determination of maximum sirtuin inhibition). A control for activation of sirtuin activity was conducted using 10 nM of sirtuin protein, with 1 μL of DMSO in place of compound, to determine the amount of deacetylation of the substrate at a given time point within the linear range of the assay. This time point was the same as that used for test compounds and, within the linear range, the endpoint represents a change in velocity.
For the above assay, SIRT1 protein was expressed and purified as follows. The SirT1 gene was cloned into a T7-promoter containing vector and transformed into BL21(DE3). The protein was expressed by induction with 1 mM IPTG as an N-terminal His-tag fusion protein at 18° C. overnight and harvested at 30,000×g. Cells were lysed with lysozyme in lysis buffer (50 mM Tris-HCl, 2 mM Tris[2-carboxyethyl]phosphine (TCEP), 10 μM ZnCl2, 200 mM NaCl) and further treated with sonication for […] for complete lysis. The protein was purified over a Ni-NTA column (Amersham) and fractions containing pure protein were pooled, concentrated and run over a sizing column (Sephadex S200 26/60 global). The peak containing soluble protein was collected and run on an Ion-exchange column (MonoQ). Gradient elution (200 mM-500 mM NaCl) yielded pure protein. This protein was concentrated and dialyzed against dialysis buffer (20 mM Tris-HCl, 2 mM TCEP) overnight. The protein was aliquoted and frozen at −80° C. until further use.

In the case of `O=C(Nc1ncco1)c1cnc2ccc(-c3ccccc3C(F)(F)F)nn12` [Compound 114], the “TAMRA EC1.5 (μM)” value is on record as “B (EC1.5 1-25 μM)” and the Emax is < 350%.
In the same order, the values of `Cn1nccc1NC(=O)c1cnc2ccc(-c3ccccc3C(F)(F)F)nn12` [Compound 115] are “C (EC1.5>25 μM)” and < 350%.
As for `O=C(Nc1ccccn1)c1cnc2ccc(-c3ccccc3Cl)nn12` [Compound 117], the “TAMRA EC1.5 (μM)” value is listed as “B (EC1.5 1-25 μM)” and the Emax was < 350%.
Taken in the same sequence, the figures for `O=C(Nc1cccnc1)c1cnc2ccc(-c3ccccc3Cl)nn12` [Compound 118] were “B (EC1.5 1-25 μM)” and < 350%.
Taken in the same sequence, the figures for `O=C(Nc1cnc2ccc(-c3ccccc3C(F)(F)F)nn12)c1ncccn1` [Compound 121] were “A (EC1.5<1 μM)” and ≥ 350%.
Taken in the same sequence, the figures for `Cc1cnc(C(=O)Nc2cnc3ccc(-c4ccccc4C(F)(F)F)nn23)s1` [Compound 123] were “A (EC1.5<1 μM)” and ≥ 350%.
For `O=C(Nc1cnc2ccc(-c3ccccc3C(F)(F)F)nn12)c1ccnc(N2CCCC2)c1` [Compound 124], the “TAMRA EC1.5 (μM)” value is reported as “A (EC1.5<1 μM)” and the Emax was ≥ 350%.
In the same order, the values of `O=C(Nc1cccc(CN2CCOCC2)n1)c1cnc2ccc(-c3ccc(F)c(F)c3F)nn12` [Compound 127] are “B (EC1.5 1-25 μM)” and < 350%.
Taken in the same sequence, the figures for `O=C(Nc1ccccn1)c1cnc2ccc(-c3ccc(F)c(F)c3F)nn12` [Compound 129] were “C (EC1.5>25 μM)” and < 350%.
In the same order, the values of `O=C(Nc1ccnc(N2CCC2)c1)c1cnc2ccc(-c3ccc(F)c(F)c3F)nn12` [Compound 132] are “C (EC1.5>25 μM)” and < 350%.
In the case of `O=C(Nc1cccc(CN2CCOCC2)n1)c1cnc2ccc(-c3ccccc3F)nn12` [Compound 135], the “TAMRA EC1.5 (μM)” value was “A (EC1.5<1 μM)” and the Emax was ≥ 350%.
Taken in the same sequence, the figures for `O=C(Nc1ccncc1)c1cnc2ccc(-c3ccccc3F)nn12` [Compound 136] were “B (EC1.5 1-25 μM)” and < 350%.
Taken in the same sequence, the figures for `O=C(Nc1ccccn1)c1cnc2ccc(-c3ccccc3F)nn12` [Compound 137] were “B (EC1.5 1-25 μM)” and < 350%.
In the same order, the values of `O=C(Nc1cccnc1)c1cnc2ccc(-c3ccccc3F)nn12` [Compound 138] are “B (EC1.5 1-25 μM)” and < 350%.
On to `O=C(Nc1cnccn1)c1cnc2ccc(-c3ccccc3F)nn12` [Compound 139], for which the “TAMRA EC1.5 (μM)” value is given as “B (EC1.5 1-25 μM)” and the Emax was < 350%.
For the compound `O=C(Nc1ccccn1)c1cnc2ccc(-c3cccc(Cl)c3F)nn12` [Compound 142], the “TAMRA EC1.5 (μM)” value is reported as “B (EC1.5 1-25 μM)” and the Emax was < 350%.
Taken in the same sequence, the figures for `O=C(Nc1cnc2ccc(-c3ccccc3C(F)(F)F)nn12)c1cccc(N2CCC2)n1` [Compound 144] were “A (EC1.5<1 μM)” and ≥ 350%.
Consider `O=C(Nc1cnc2ccc(-c3ccccc3C(F)(F)F)nn12)c1cccc(CN2CCCC2)n1` [Compound 145], for which the “TAMRA EC1.5 (μM)” value is “A (EC1.5<1 μM)” and the Emax was ≥ 350%.
With `O=C(Nc1cnc2ccc(-c3ccccc3C(F)(F)F)nn12)c1ccc(CN2CCOCC2)nc1` [Compound 147], the “TAMRA EC1.5 (μM)” value is given as “B (EC1.5 1-25 μM)” and the Emax is < 350%.
Taken in the same sequence, the figures for `O=C(Nc1cnc2ccc(-c3ccccc3C(F)(F)F)nn12)c1ccnc(CN2CCOCC2)c1` [Compound 148] were “C (EC1.5>25 μM)” and < 350%.
On to `O=C(Nc1ncc(N2CCOCC2)s1)c1cnc2ccc(-c3ccccc3C(F)(F)F)nn12` [Compound 151], for which the “TAMRA EC1.5 (μM)” value is reported as “A (EC1.5<1 μM)” and the Emax was ≥ 350%.
Taken in the same sequence, the figures for `Cn1cc(NC(=O)c2cnc3ccc(-c4ccccc4C(F)(F)F)nn23)cn1` [Compound 153] were “B (EC1.5 1-25 μM)” and ≥ 350%.
For the compound `COCCn1cc(NC(=O)c2cnc3ccc(-c4ccccc4C(F)(F)F)nn23)cn1` [Compound 154], the “TAMRA EC1.5 (μM)” value is on record as “B (EC1.5 1-25 μM)” and the Emax is ≥ 350%.
Taken in the same sequence, the figures for `COCCn1cc(NC(=O)c2cnc3ccc(-c4ccccc4C(F)(F)F)nn23)ccc1=O` [Compound 156] were “B (EC1.5 1-25 μM)” and < 350%.
In the same order, the values of `O=C(Nc1cnccn1)c1cnc2ccc(-c3cccc(Cl)c3F)nn12` [Compound 157] are “B (EC1.5 1-25 μM)” and < 350%.
Taken in the same sequence, the figures for `O=C(Nc1cccc(N2CCOCC2)n1)c1cnc2ccc(-c3cccc(Cl)c3F)nn12` [Compound 158] were “A (EC1.5<1 μM)” and ≥ 350%.
`O=C(Nc1cccc(CN2CCOCC2)n1)c1cnc2ccc(-c3c(F)cccc3Cl)nn12` [Compound 160]: the “TAMRA EC1.5 (μM)” value is recorded as “B (EC1.5 1-25 μM)” and the Emax was ≥ 350%.
In the same order, the values of `O=C(Nc1ccccn1)c1cnc2ccc(-c3c(F)cccc3Cl)nn12` [Compound 162] are “B (EC1.5 1-25 μM)” and < 350%.
On to `O=C(Nc1cccnc1)c1cnc2ccc(-c3c(F)cccc3Cl)nn12` [Compound 163], for which the “TAMRA EC1.5 (μM)” value is “C (EC1.5>25 μM)” and the Emax is < 350%.
Taken in the same sequence, the figures for `O=C(Nc1ccnc(N2CCC2)c1)c1cnc2ccc(-c3c(F)cccc3Cl)nn12` [Compound 165] were “B (EC1.5 1-25 μM)” and ≥ 350%.
In the same order, the values of `O=C(Nc1ccncc1)c1cnc2ccc(-c3c(F)cccc3F)nn12` [Compound 166] are “C (EC1.5>25 μM)” and < 350%.
As to `O=C(Nc1cccc(N2CCOCC2)n1)c1cnc2ccc(-c3c(F)cccc3F)nn12` [Compound 168], the “TAMRA EC1.5 (μM)” value is “A (EC1.5<1 μM)” and the Emax was ≥ 350%.
In the same order, the values of `O=C(Nc1cccnc1)c1cnc2ccc(-c3c(F)cccc3F)nn12` [Compound 169] are “C (EC1.5>25 μM)” and < 350%.
In the same order, the values of `O=C(Nc1cnccn1)c1cnc2ccc(-c3c(F)cccc3F)nn12` [Compound 171] are “C (EC1.5>25 μM)” and < 350%.
On to `COc1cc(C)nc(NC(=O)c2cnc3ccc(-c4ccccc4C(F)(F)F)nn23)n1` [Compound 174], for which the “TAMRA EC1.5 (μM)” value is “A (EC1.5<1 μM)” and the Emax was ≥ 350%.
